Test results from US12448369B2 (Edgewise Therapeutics, Inc., priority 2023, dated 2025).

Each molecule was assayed on Porcine atria myofibrils (atrial myosin ATPase) (assay: Myofibril ATPase assay, porcine atria myofibrils). Conditions: Y75 value (no ‡ mark); porcine atria myofibrils.
Format: biochemical
Outline: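 Y75 (25% inhibition) or Y125 (activation) values come from 4-parameter logistic fits of vehicle-normalized rates. Rates are linear-regression slopes of NADH absorbance at 340 nm, read kinetically over 75 min, with ADP coupled to NADH oxidation via pyruvate kinase/lactate dehydrogenase.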
With `C[C@@H](NC(=O)Cc1cc2ccc(F)cc2[nH]c1=O)c1ncc(C#N)cn1` (single isomer, unassigned) [compound 2033] the “Atrial EC25” value was 100.00 µM.

Same assay, conditions: porcine atria myofibrils; Y75 value (75% activity relative to no compound)
In the case of `Cc1c(CC(=O)N[C@@H](C)c2ncc(F)cc2F)c(=O)[nH]c2ccnc(C(F)(F)F)c12` (single isomer, unassigned) [compound 266], the “Atrial EC25” value is reported as 0.25 µM. In the case of `COc1ccc2[nH]c(=O)c(CC(=O)N[C@@H](C)c3ccc(F)cc3F)c(C)c2n1` [compound 409], the “Atrial EC25” value is reported as 0.04 µM. With `Cc1c(CC(=O)N[C@@H](C)c2ccc(F)cc2F)c(=O)[nH]c2ccnnc12` [compound 418] the “Atrial EC25” value was 2.66 µM. `Cc1nccc2[nH]c(=O)c(CC(=O)N[C@@H](C)c3cccnc3O)c(C)c12` (single isomer, unassigned) [compound 307] was tested, and the “Atrial EC25” value was 100.00 µM. For `Cc1c(CC(=O)N[C@@H](C)c2ccc(F)cc2F)c(=O)[nH]c2ccnc(NCC(C)C)c12` [compound 277], the “Atrial EC25” value was 100.00 µM. `Cc1c(CC(=O)N[C@@H](C)c2ccc(C#N)cn2)c(=O)[nH]c2ccnc(C(F)(F)F)c12` [compound 156] was tested, and the “Atrial EC25” value was 0.33 µM. With `Cc1nccc2[nH]c(=O)c(CC(=O)N[C@H](C)c3ccc(C#N)cc3F)c(F)c12` [compound 148] the “Atrial EC25” value was 1.99 µM. For `C[C@@H](NC(=O)Cc1c(Cl)c2cnccc2[nH]c1=O)c1ccc(C#N)cn1` [compound 453], the “Atrial EC25” value was 8.79 µM. In the case of `Cc1c(CC(=O)N[C@@H](C)c2ncc(F)cc2F)c(=O)[nH]c2ccnc(C#N)c12` (single isomer, unassigned) [compound 305], the “Atrial EC25” value is reported as 0.07 µM. `COc1ncc2[nH]c(=O)c(CC(=O)N[C@@H](C)c3ccc(F)cc3F)cc2n1` [compound 497] was tested, and the “Atrial EC25” value was 73.3 µM. For `C[C@H](NC(=O)Cc1cc2c(C#N)nccc2[nH]c1=O)c1ccc(C#N)cn1` [compound 473], the “Atrial EC25” value was 1.44 µM. For `C[C@@H](NC(=O)Cc1cc2c(C#N)nccc2[nH]c1=O)c1ccc(C#N)cn1` [compound 472], the “Atrial EC25” value was 4.05 µM. `Cc1c(CC(=O)N[C@@H](C)c2ccc(F)cc2F)c(=O)[nH]c2ccnc(N)c12` [compound 352] was tested, and the “Atrial EC25” value was 2.64 µM. For `COc1ccc([C@H](C)NC(=O)Cc2c(C)c3c(C)nccc3[nH]c2=O)cn1` (single isomer, unassigned) [compound 291], the “Atrial EC25” value was 100.00 µM. With `Cc1nccc2[nH]c(=O)c(C(F)(F)C(=O)N[C@H](C)c3ncc(C#N)cc3F)c(C)c12` (single isomer, unassigned) [compound 3513] the “Atrial EC25” value was 4.94 µM.

The molecules below were run against T1, Porcine ventricle myofibrils (ventricular myosin ATPase) (Sus scrofa, UniProt P79293) (assay: Myofibril ATPase assay, porcine ventricle myofibrils). Conditions: Y75 value (no ‡ mark); porcine ventricle myofibrils.
T1 construct: Myofibrils from porcine cardiac muscle was isolated from the left ventricle of Yucatan minipigs; tissue Exemplar Genetics; host or cells: left ventricle of Yucatan minipigs, myofibrils prepared in house
T1 sequence (P79293 whole entry): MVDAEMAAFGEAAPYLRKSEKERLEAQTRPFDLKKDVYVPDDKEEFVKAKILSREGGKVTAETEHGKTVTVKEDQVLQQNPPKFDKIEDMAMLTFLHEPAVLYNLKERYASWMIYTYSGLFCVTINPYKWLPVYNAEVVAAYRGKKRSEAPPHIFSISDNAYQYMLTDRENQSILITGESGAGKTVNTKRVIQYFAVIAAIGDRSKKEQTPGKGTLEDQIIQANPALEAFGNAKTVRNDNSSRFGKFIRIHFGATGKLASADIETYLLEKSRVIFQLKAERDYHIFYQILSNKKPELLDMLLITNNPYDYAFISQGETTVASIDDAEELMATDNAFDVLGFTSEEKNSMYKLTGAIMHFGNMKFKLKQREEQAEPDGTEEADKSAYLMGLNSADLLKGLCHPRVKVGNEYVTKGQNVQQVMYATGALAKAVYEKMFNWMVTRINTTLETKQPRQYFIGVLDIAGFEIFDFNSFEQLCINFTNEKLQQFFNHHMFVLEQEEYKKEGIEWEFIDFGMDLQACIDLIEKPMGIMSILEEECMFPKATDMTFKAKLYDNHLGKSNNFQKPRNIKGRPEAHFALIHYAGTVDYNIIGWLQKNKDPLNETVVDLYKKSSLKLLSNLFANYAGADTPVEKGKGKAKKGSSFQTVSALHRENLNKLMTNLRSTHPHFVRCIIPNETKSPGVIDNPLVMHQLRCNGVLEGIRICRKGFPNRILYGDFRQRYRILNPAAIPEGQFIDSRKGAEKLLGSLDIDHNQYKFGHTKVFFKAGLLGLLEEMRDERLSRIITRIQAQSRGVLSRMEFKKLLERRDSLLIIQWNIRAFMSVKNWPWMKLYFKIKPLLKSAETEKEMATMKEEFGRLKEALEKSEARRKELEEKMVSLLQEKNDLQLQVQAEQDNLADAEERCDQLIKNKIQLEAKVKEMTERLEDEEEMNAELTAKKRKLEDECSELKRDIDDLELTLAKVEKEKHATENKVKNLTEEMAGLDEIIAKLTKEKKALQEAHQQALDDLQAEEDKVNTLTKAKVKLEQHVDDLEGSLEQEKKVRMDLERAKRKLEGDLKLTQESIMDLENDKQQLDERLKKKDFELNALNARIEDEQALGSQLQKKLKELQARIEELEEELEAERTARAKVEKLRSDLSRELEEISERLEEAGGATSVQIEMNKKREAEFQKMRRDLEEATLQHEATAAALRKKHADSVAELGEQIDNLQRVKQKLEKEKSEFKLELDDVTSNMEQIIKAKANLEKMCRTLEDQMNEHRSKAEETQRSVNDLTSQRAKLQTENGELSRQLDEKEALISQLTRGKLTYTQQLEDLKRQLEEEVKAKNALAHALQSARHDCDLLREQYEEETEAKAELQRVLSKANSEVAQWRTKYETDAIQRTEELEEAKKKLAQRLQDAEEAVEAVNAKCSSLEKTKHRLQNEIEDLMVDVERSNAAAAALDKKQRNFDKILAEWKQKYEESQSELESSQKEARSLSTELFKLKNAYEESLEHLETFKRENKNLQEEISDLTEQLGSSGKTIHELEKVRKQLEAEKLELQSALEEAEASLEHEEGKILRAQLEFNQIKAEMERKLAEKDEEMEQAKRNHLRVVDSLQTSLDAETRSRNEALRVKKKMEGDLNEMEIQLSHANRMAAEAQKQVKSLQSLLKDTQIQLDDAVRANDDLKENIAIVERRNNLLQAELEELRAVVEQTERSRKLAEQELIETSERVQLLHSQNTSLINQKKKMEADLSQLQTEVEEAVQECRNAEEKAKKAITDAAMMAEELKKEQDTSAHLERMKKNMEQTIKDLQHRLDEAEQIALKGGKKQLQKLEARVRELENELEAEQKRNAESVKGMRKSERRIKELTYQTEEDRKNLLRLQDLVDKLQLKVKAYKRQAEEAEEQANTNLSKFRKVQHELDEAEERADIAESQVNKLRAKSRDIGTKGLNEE
Format: biochemical, porcine (Yucatan minipigs)
Outline: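 Left-ventricle myofibrils from Yucatan minipigs were tested with a PK/LDH-coupled system, following NADH loss at 340 nm every 1.5-2 min for 75 min. Slopes were normalized to vehicle wells and fit to a 4-parameter logistic model; values are Y75 (25% ATPase reduction) or Y125 concentrations.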
With `C[C@@H](NC(=O)Cc1cc2ccc(F)cc2[nH]c1=O)c1ncc(C#N)cn1` (single isomer, unassigned) [compound 2033] the “Ventricular EC25” value was 100.00 µM.

Same assay, conditions: porcine ventricle myofibrils; Y75 value
`Cc1c(CC(=O)N[C@@H](C)c2ncc(F)cc2F)c(=O)[nH]c2ccnc(C(F)(F)F)c12` (single isomer, unassigned) [compound 266] was tested, and the “Ventricular EC25” value was 1.11 µM. For `COc1ccc2[nH]c(=O)c(CC(=O)N[C@@H](C)c3ccc(F)cc3F)c(C)c2n1` [compound 409], the “Ventricular EC25” value was 0.59 µM. For `Cc1c(CC(=O)N[C@@H](C)c2ccc(F)cc2F)c(=O)[nH]c2ccnnc12` [compound 418], the “Ventricular EC25” value was 48.43 µM. With `Cc1nccc2[nH]c(=O)c(CC(=O)N[C@@H](C)c3cccnc3O)c(C)c12` (single isomer, unassigned) [compound 307] the “Ventricular EC25” value was 100.00 µM. With `Cc1c(CC(=O)N[C@@H](C)c2ccc(F)cc2F)c(=O)[nH]c2ccnc(NCC(C)C)c12` [compound 277] the “Ventricular EC25” value was 84.29 µM. With `Cc1c(CC(=O)N[C@@H](C)c2ccc(C#N)cn2)c(=O)[nH]c2ccnc(C(F)(F)F)c12` [compound 156] the “Ventricular EC25” value was 3.12 µM. In the case of `Cc1nccc2[nH]c(=O)c(CC(=O)N[C@H](C)c3ccc(C#N)cc3F)c(F)c12` [compound 148], the “Ventricular EC25” value is reported as 3.02 µM. `C[C@@H](NC(=O)Cc1c(Cl)c2cnccc2[nH]c1=O)c1ccc(C#N)cn1` [compound 453] was tested, and the “Ventricular EC25” value was 100.00 µM. With `Cc1c(CC(=O)N[C@@H](C)c2ncc(F)cc2F)c(=O)[nH]c2ccnc(C#N)c12` (single isomer, unassigned) [compound 305] the “Ventricular EC25” value was 0.57 µM. In the case of `COc1ncc2[nH]c(=O)c(CC(=O)N[C@@H](C)c3ccc(F)cc3F)cc2n1` [compound 497], the “Ventricular EC25” value is reported as 100 µM. `C[C@H](NC(=O)Cc1cc2c(C#N)nccc2[nH]c1=O)c1ccc(C#N)cn1` [compound 473] was tested, and the “Ventricular EC25” value was 6.63 µM. In the case of `C[C@@H](NC(=O)Cc1cc2c(C#N)nccc2[nH]c1=O)c1ccc(C#N)cn1` [compound 472], the “Ventricular EC25” value is reported as 5.93 µM. In the case of `Cc1c(CC(=O)N[C@@H](C)c2ccc(F)cc2F)c(=O)[nH]c2ccnc(N)c12` [compound 352], the “Ventricular EC25” value is reported as 31.62 µM. In the case of `COc1ccc([C@H](C)NC(=O)Cc2c(C)c3c(C)nccc3[nH]c2=O)cn1` (single isomer, unassigned) [compound 291], the “Ventricular EC25” value is reported as 100.00 µM. With `Cc1nccc2[nH]c(=O)c(C(F)(F)C(=O)N[C@H](C)c3ncc(C#N)cc3F)c(C)c12` (single isomer, unassigned) [compound 3513] the “Ventricular EC25” value was 62.33 µM.

The molecules below were run on Rabbit Psoas myofibrils (skeletal myosin ATPase) (assay: Myofibril ATPase assay, rabbit psoas (skeletal) myofibrils). Conditions: Y75 value (no ‡ mark); rabbit psoas myofibrils.
Format: biochemical
Outline: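 Values are concentrations giving 75% (Y75) or 125% (Y125) of vehicle ATPase activity, from 4-parameter logistic fits of normalized rates. Rates came from linear regression of A340 over 75 min, NADH oxidation coupled to ADP via PK-LDH. Enzyme source: skeletal myofibrils from rabbit psoas, pH 7.0 pCa buffer.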
`C[C@@H](NC(=O)Cc1cc2ccc(F)cc2[nH]c1=O)c1ncc(C#N)cn1` (single isomer, unassigned) [compound 2033] was tested, and the “Skeletal EC25” value was 24.12 µM.

Same assay, conditions: rabbit psoas myofibrils; Y75 value
For `Cc1c(CC(=O)N[C@@H](C)c2ncc(F)cc2F)c(=O)[nH]c2ccnc(C(F)(F)F)c12` (single isomer, unassigned) [compound 266], the “Skeletal EC25” value was 0.21 µM. In the case of `COc1ccc2[nH]c(=O)c(CC(=O)N[C@@H](C)c3ccc(F)cc3F)c(C)c2n1` [compound 409], the “Skeletal EC25” value is reported as 0.03 µM. `Cc1c(CC(=O)N[C@@H](C)c2ccc(F)cc2F)c(=O)[nH]c2ccnnc12` [compound 418] was tested, and the “Skeletal EC25” value was 2.19 µM. `Cc1nccc2[nH]c(=O)c(CC(=O)N[C@@H](C)c3cccnc3O)c(C)c12` (single isomer, unassigned) [compound 307] was tested, and the “Skeletal EC25” value was 100.00 µM. `Cc1c(CC(=O)N[C@@H](C)c2ccc(F)cc2F)c(=O)[nH]c2ccnc(NCC(C)C)c12` [compound 277] was tested, and the “Skeletal EC25” value was 82.10 µM. `Cc1c(CC(=O)N[C@@H](C)c2ccc(C#N)cn2)c(=O)[nH]c2ccnc(C(F)(F)F)c12` [compound 156] was tested, and the “Skeletal EC25” value was 0.21 µM. With `Cc1nccc2[nH]c(=O)c(CC(=O)N[C@H](C)c3ccc(C#N)cc3F)c(F)c12` [compound 148] the “Skeletal EC25” value was 2.55 µM. In the case of `C[C@@H](NC(=O)Cc1c(Cl)c2cnccc2[nH]c1=O)c1ccc(C#N)cn1` [compound 453], the “Skeletal EC25” value is reported as 9.12 µM. For `Cc1c(CC(=O)N[C@@H](C)c2ncc(F)cc2F)c(=O)[nH]c2ccnc(C#N)c12` (single isomer, unassigned) [compound 305], the “Skeletal EC25” value was 0.02 µM. `COc1ncc2[nH]c(=O)c(CC(=O)N[C@@H](C)c3ccc(F)cc3F)cc2n1` [compound 497] was tested, and the “Skeletal EC25” value was 100 µM. With `C[C@H](NC(=O)Cc1cc2c(C#N)nccc2[nH]c1=O)c1ccc(C#N)cn1` [compound 473] the “Skeletal EC25” value was 0.30 µM. With `C[C@@H](NC(=O)Cc1cc2c(C#N)nccc2[nH]c1=O)c1ccc(C#N)cn1` [compound 472] the “Skeletal EC25” value was 0.40 µM. With `Cc1c(CC(=O)N[C@@H](C)c2ccc(F)cc2F)c(=O)[nH]c2ccnc(N)c12` [compound 352] the “Skeletal EC25” value was 0.18 µM. In the case of `COc1ccc([C@H](C)NC(=O)Cc2c(C)c3c(C)nccc3[nH]c2=O)cn1` (single isomer, unassigned) [compound 291], the “Skeletal EC25” value is reported as 100.00 µM. With `Cc1nccc2[nH]c(=O)c(C(F)(F)C(=O)N[C@H](C)c3ncc(C#N)cc3F)c(C)c12` (single isomer, unassigned) [compound 3513] the “Skeletal EC25” value was 5.80 µM.
